Holding throughout (test): NCI tumour cell line growth inhibition, 48 h
The test system of assay [1] is HL-60.
Assay [2] has as its system SF-539.
Assay [3] deals with SNB-19.
Assay [4] deals with HOP-92.
Assay [5] concerns OVCAR-3.
In assay [6] the test system is RXF 393.
The test system of assay [7] is OVCAR-8.
Assay [8] concerns HCT-15.
In assay [9] the test system is CAKI-1.
Assay [10] relates to RPMI-8226.
Assay [11] deals with K562.
Assay [12] deals with CCRF-CEM.
Assay [13] deals with LOX IMVI.
Assay [14] deals with COLO 205.
The test system of assay [15] is SK-MEL-5.
For assay [16], the system named is SNB-78.
The subject of assay [17] is HT-29.
Assay [18] deals with M19-MEL.
Assay [19] relates to DMS-273.
Assay [20] has as its system DMS-114.

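Dose response: 5 concentrations. Exposure: 48 h. Format: 96-well plates. Endpoint: linear interpolation; highest concentration if not reached. GI50: concentration for 50% inhibition of growth.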 Active and inactive are the calls of the source. No stated cut-off is given here; in the data, active = GI50 up to about 1.1 µM and inactive = higher.

These results are taken from ChEMBL document CHEMBL1201862, “PubChem BioAssay data set” (2004).

With `Oc1ccc(Cl)cc1C1=Nn2c(COc3ccc4c(c3)CCCC4)nnc2SC1`, the GI50 in assay [1] was 15 µM (inactive); in [2], 16.7 µM (inactive); in assay [3], 20.7 µM (inactive); in assay [4], 3.04 µM (inactive); in [5] it was 12.6 µM (inactive); in assay [6], 16.5 µM (inactive). The GI50 in assay [7] is 14.9 µM (inactive); in assay [8] it was 17.9 µM; in [9], 19.4 µM (inactive); in assay [10] it was 4.99 µM (inactive); in [11] it was 10.5 µM (inactive); in assay [12] it was 17 µM (inactive). Moreover, the GI50 in assay [13] is 14 µM (inactive); in assay [14], 16 µM (inactive); in assay [15] it was 5.25 µM (inactive).
As for `CCOC(=O)C1C(c2cc(OC)c(O)c(OC)c2)c2cc3c(cc2OC1(C)O)OCO3` (configuration not stated), the GI50 in assay [1] was > 100 µM (inactive); in assay [2], > 100 µM (inactive); in assay [16], 81.7 µM (inactive); in assay [3], > 100 µM (inactive); in assay [17] it was 41.1 µM (inactive); in assay [4], 11.5 µM (inactive). The GI50 in assay [5] was 65.3 µM (inactive); in [7] it was > 100 µM (inactive); in assay [8] it was 46.6 µM; in [9], 26 µM (inactive); in assay [10], 71.1 µM (inactive); in assay [11], > 100 µM (inactive). Also, the GI50 in assay [12] is > 100 µM (inactive); in [13], 93.1 µM (inactive); in [14] it was > 100 µM (inactive); in assay [18], 66.4 µM (inactive); in assay [19] it was 36.9 µM (inactive); in assay [15], 36 µM (inactive).
In the case of `Cc1cc2cccc(Cl)c2nc1C(=O)c1ccccc1`, the GI50 in assay [2] was > 100 µM (inactive); in [16] it was > 100 µM (inactive); in assay [3], 70.3 µM (inactive); in assay [20] it was > 100 µM (inactive); in [5], > 100 µM (inactive); in [6], 26.6 µM (inactive). In addition, the GI50 in assay [7] is 46.3 µM (inactive); in assay [8], greater than 100 µM; in [9], > 100 µM (inactive); in [10], > 100 µM (inactive); in assay [11], > 100 µM (inactive); in assay [13] it was 94.4 µM (inactive). The GI50 in [14], in assay [18], in assay [19] and in assay [15] was > 100 µM (inactive) throughout.
For `O=C1C=CC2OC(c3ccccc3)C(O)C2O1` (configuration not stated), the GI50 in [1] is 1.4 µM (inactive); in assay [2], 3.07 µM (inactive); in assay [16] it was 7.08 µM (inactive); in [3] it was 11.4 µM (inactive); in [17], 4.53 µM (inactive); in [4], 2.15 µM (inactive). Moreover, the GI50 in assay [20] was 4.57 µM (inactive); in [5] it was 3.5 µM (inactive); in assay [6], 1.37 µM (inactive); in assay [7], 3.62 µM (inactive); in assay [8], 3.42 µM; in [9] it was 2.85 µM (inactive). Moreover, the GI50 in assay [10] was 1.39 µM (inactive); in [11], 3.37 µM (inactive); in [12] it was 1.15 µM (inactive); in assay [13] it was 1.95 µM (inactive); in [14] it was 2.58 µM (inactive); in assay [18], 12 µM (inactive). In addition, the figures for the GI50 in assay [19] and in [15] were 4.91 µM (inactive) and 7.33 µM (inactive), respectively.
`CC(C)=CCc1c(O)ccc2ccc(=O)oc12` [OSTHENOL]: the GI50 in assay [1] is 28.2 µM (inactive); in assay [2], 24 µM (inactive); in [16], 32 µM (inactive); in assay [3], > 51.9 µM (inactive); in assay [17] it was > 100 µM (inactive); in [4] it was 38.4 µM (inactive). The GI50 was 27.9 µM (inactive) in assay [20]; 60.1 µM (inactive) in assay [5]; 38.5 µM (inactive) in assay [6]; 53 µM (inactive) in [7]; 60.1 µM in assay [8]; > 61.5 µM (inactive) in [9]. In addition, the GI50 in assay [10] is 26.7 µM (inactive); in assay [11], 37.6 µM (inactive); in assay [12], 33.9 µM (inactive); in assay [13] it was 51.5 µM (inactive); in assay [14], > 100 µM (inactive); in assay [18], 47.1 µM (inactive). Further, the GI50 is 63.7 µM (inactive) in [19] and 15.3 µM (inactive) in assay [15].
With `Cn1ncc2c(=O)[nH]c(-c3ccccc3)nc21`, the GI50 in [1], in assay [2], in [16], in assay [3], in assay [17] and in assay [20] was > 100 µM (inactive) each time. Besides, the GI50 in assay [6] was > 100 µM (inactive); in assay [7], > 100 µM (inactive); in assay [8], greater than 100 µM; in assay [9], > 100 µM (inactive); in [10], > 100 µM (inactive); in [11] it was > 100 µM (inactive). The GI50 in assay [12], in assay [13], in [14], in [19] and in assay [15] was > 100 µM (inactive) each time.
Regarding `N/C(=N\O)N/N=C\c1ccccc1O`, the GI50 in [1] is 0.977 µM (active); in [2], 14.5 µM (inactive); in assay [16] it was 21.9 µM (inactive); in assay [3] it was 18.9 µM (inactive); in assay [17], 4.19 µM (inactive); in [4] it was 8.79 µM (inactive). In addition, the GI50 in assay [20] is 4.73 µM (inactive); in assay [5], 10.4 µM (inactive); in [6], 7.98 µM (inactive); in [7] it was 3.2 µM (inactive); in assay [8], 3.48 µM; in [9], 3.84 µM (inactive). For the same molecule, the GI50 in assay [10] is 1.48 µM (inactive); in assay [11], 3.99 µM (inactive); in assay [12], 5.6 µM (inactive); in assay [13] it was 5.48 µM (inactive); in assay [14], 5.81 µM (inactive); in assay [18], 16.6 µM (inactive). Moreover, the GI50 was 4.38 µM (inactive) in assay [19] and 10 µM (inactive) in assay [15].
On to `CCCOC(=O)CNC(=O)OC(C)(C)C`, for which the GI50 in assay [1], in assay [2], in [16], in assay [3], in [17] and in assay [4] was > 100 µM (inactive) each time. Further, the GI50 is > 100 µM (inactive) in assay [20]; > 100 µM (inactive) in [5]; > 100 µM (inactive) in [6]; > 100 µM (inactive) in assay [7]; greater than 100 µM in assay [8]; > 100 µM (inactive) in assay [9]. For the same molecule, the GI50 in assay [11], in [12], in assay [13], in assay [14], in [18] and in assay [19] was > 100 µM (inactive) throughout. Moreover, in [15], the GI50 was > 100 µM (inactive).
On to `COc1ccc(C2C(=O)C(Cl)N2Nc2nc(C)cc(O)n2)cc1OC` (configuration not stated), for which the GI50 in [1] is 13.9 µM (inactive); in assay [2], 24 µM (inactive); in assay [16], 21.1 µM (inactive); in assay [3], 40.5 µM (inactive); in assay [17], 46.1 µM (inactive); in [4], 25.5 µM (inactive). Also, the GI50 was 10.2 µM (inactive) in assay [5]; 25.2 µM (inactive) in assay [6]; 26.3 µM (inactive) in assay [7]; 20.2 µM in [8]; 19.1 µM (inactive) in assay [10]; 22 µM (inactive) in assay [11]. The GI50 is 5.58 µM (inactive) in [12]; 18.1 µM (inactive) in assay [13]; 51.2 µM (inactive) in assay [14]; 42.3 µM (inactive) in [18]; 22.1 µM (inactive) in assay [19]; 29.3 µM (inactive) in assay [15].
On to `O=C1OC(c2ccccc2)=N/C1=C\c1cccnc1`, for which the GI50 in [1] is 20.7 µM (inactive); in [2], > 100 µM (inactive); in [3], > 100 µM (inactive); in [17], > 100 µM (inactive); in [4], > 100 µM (inactive); in [5] it was > 100 µM (inactive). Also, the GI50 in [6] was > 100 µM (inactive); in assay [7] it was > 100 µM (inactive); in assay [8], greater than 100 µM; in assay [10], 48.3 µM (inactive); in assay [11], 34.8 µM (inactive); in [12], 29.2 µM (inactive). Besides, the GI50 in [15] is > 100 µM (inactive).
As to `CCOC(=O)c1c(NC(=S)NCc2ccccc2)sc2c1CCN(C)C2`, the GI50 was 17.4 µM (inactive) in assay [1]; 69.2 µM (inactive) in assay [2]; > 100 µM (inactive) in assay [3]; 45.5 µM (inactive) in [17]; 36.5 µM (inactive) in [5]; 82.2 µM (inactive) in assay [7]. Moreover, the GI50 is 68.1 µM in [8]; > 100 µM (inactive) in assay [9]; 28.5 µM (inactive) in [10]; 21.7 µM (inactive) in assay [11]; 17.6 µM (inactive) in assay [12]; 46.1 µM (inactive) in [14]. For the same molecule, the GI50 in assay [15] was 45.1 µM (inactive).
For `CCN(CC)C(=O)C(C)n1cc(C)c(=O)[nH]c1=O` (configuration not stated), the GI50 in [1], in assay [2], in assay [16], in [3], in assay [17] and in [20] was > 100 µM (inactive) each time. Further, the GI50 was > 100 µM (inactive) in [5]; > 100 µM (inactive) in [6]; > 100 µM (inactive) in assay [7]; greater than 100 µM in assay [8]; > 100 µM (inactive) in assay [10]; > 100 µM (inactive) in [11]. Further, the GI50 in assay [12], in assay [13], in assay [14], in assay [18], in assay [19] and in [15] was > 100 µM (inactive) in each case.
